Consider 4 compounds from article PMC4421842 (Nature Communications, 2015).

Data set [1] relates to P. aeruginosa. Briefly: MIC, microdilution broth, P. aeruginosa. The data set is classed as cell-based. The text has this:
(§1) MRSA and P. aeruginosa isolates were from Cubist Pharmaceuticals (Lexington, MA). VRE isolates were from a previously published collection. E. coli strains were obtained either from ATCC or Professor Cari Vanderpool (UIUC). A. baumannii isolates were obtained from Dr John Quale[51].
(§2) Mueller Hinton (MH) broth was used.

Data set [2] deals with A. baumannii. Briefly: MIC, microdilution broth, A. baumannii. It counts as cell-based. The following applies: for MIC: Acinetobacter baumannii.
Source text: as §1, §2
In general terms: Dilution methods test growth across graded concentrations, often in twofold steps.

The test system of data set [3] is resistant strains of ATCC 29213. Description: microbe, parasite or virus in culture. It counts as cell-based, S. aureus. To be noted: Staphylococcus aureus.
In data set [4] the test system is P. aeruginosa. The arrangement: method as in earlier work. To be noted: previously determined, cited from earlier work.
A further data set has as its system E. coli. Description: microbe, parasite or virus in culture. It counts as cell-based.
Source text: as §1, §2

The subject of a further data set is E. faecalis. Briefly: microbe, parasite or virus in culture. The following applies: for MIC: Enterococcus faecalis, E. faecalis. The data set is classed as cell-based.
The subject of another data set is E. faecium. Description: microbe, parasite or virus in culture. It counts as cell-based. The following applies: for MIC: Enterococcus faecium, E. faecium.
In data set [5] the test system is A. baumannii. The arrangement: method as in earlier work. The following applies: previously determined, cited from earlier work.
A further data set has as its system VRE clinical isolates. Briefly: MIC, VRE clinical isolates panel (summary by GyrA mutation). It counts as cell-based, Enterococcus. The following applies: panel of VRE clinical isolates (n=22).
Source text: as §1, §2

In another data set the test system is Ent. Spp. Briefly: MIC, microdilution broth, Ent. Spp. VRE clinical isolate. It counts as cell-based. The following applies: Enterococcus, C28036, gyrA Ser83Ile, parC Ser80Ile.
Source text: as §1, §2

The next data set relates to MRSA clinical isolates. Briefly: microbe, parasite or virus in culture. It counts as cell-based, S. aureus. The following applies: for MIC: Staphylococcus aureus, MRSA, read-out: MIC. The protocol: as §1
Susceptibility testing was performed in triplicate, using the microdilution broth method as outlined by the Clinical and Laboratory Standards Institute[52]. Mueller Hinton (MH) broth was used.

Data set [6] deals with WT S. aureus (ATCC 29213, WT). Description: microbe, parasite or virus in culture. It counts as cell-based. To be noted: WT GyrA and WT ParC, three independent replicates; for MIC against S. aureus 29213: ATCC 29213; for MIC: Staphylococcus aureus, ATCC29213, ATCC 29213, read-out: MIC against S. aureus 29213.
Another data set is described as follows: physchem. To be noted: pH 7.4.
The test system of data set [7] is FQR S. aureus (NRS3, FQR). Description: MIC, microdilution broth assay, FQR MRSA NRS3. It counts as cell-based. The following applies: NRS3; S84L GyrA and S80F ParC; three independent replicates.
A short description of data set [8]: Aqueous solubility determination. To be noted: PBS, pH 7.4.
Method: (§3) Three independent replicates of each compound were performed.
The target of another data set is T1, human topoisomerase II (Homo sapiens, UniProt P11388).
T1 construct: purchased Inspiralis
Briefly: Human topoisomerase decatenation assay. It counts as biochemical. The method, then:
The decatenation assay was performed with the Human Topo II Decatenation Assay Kit (Inspiralis), according to the manufacturer's instructions, with minor modifications. First, a master mix was made containing 2 μl of 10 × assay buffer (500 mM Tris-HCl pH 7.5, 1250, mM NaCl, 100 mM MgCl2, 50 mM DTT, 1,000 μg ml^−1 albumin), 0.67 μl of 30 mM ATP, 1.34 μl of 0.1 ng μl^−1 kDNA, and 14.3 μl of nuclease-free water per sample is made. DMSO or 30 × compound is added to a 0.5-ml Eppendorf tube (0.67 μl per tube). The master mix is then added to each tube (18.3 μl per tube). Finally, 1 U of human topoisomerase (1 μl of 1 U μl^−1 stock) is added to each tube for a final volume of 20 μl. The tubes are then incubated at 37 °C for 30 min. Reactions are stopped by the addition of 20 μl of 24:1 chloroform:isoamyl alcohol and 20 μl of stop dye (40% sucrose, 1 mM EDTA, 100 mM Tris-HCl pH 7.5, 0.5 μg ml^−1 bromophenol blue). Samples were run on 1% agarose gels containing 0.5 μg ml^−1 ethidium bromide for 1 h at 110 V or until the dye front was approximately halfway down the gel. Gels were imaged on a Molecular Imager Gel Doc XR+ (Biorad).

The mark [9] stands for this setting: ATCC19433, ATCC 19433, gyrA WT, parC WT.
The mark [10] stands for this setting: ATCC29212, ATCC 29212, gyrA WT, parC WT.

Converted amounts (≈) assume the structure as drawn. Where two headings read alike, the source gives them in different places.

T1 sequence (P11388 whole entry): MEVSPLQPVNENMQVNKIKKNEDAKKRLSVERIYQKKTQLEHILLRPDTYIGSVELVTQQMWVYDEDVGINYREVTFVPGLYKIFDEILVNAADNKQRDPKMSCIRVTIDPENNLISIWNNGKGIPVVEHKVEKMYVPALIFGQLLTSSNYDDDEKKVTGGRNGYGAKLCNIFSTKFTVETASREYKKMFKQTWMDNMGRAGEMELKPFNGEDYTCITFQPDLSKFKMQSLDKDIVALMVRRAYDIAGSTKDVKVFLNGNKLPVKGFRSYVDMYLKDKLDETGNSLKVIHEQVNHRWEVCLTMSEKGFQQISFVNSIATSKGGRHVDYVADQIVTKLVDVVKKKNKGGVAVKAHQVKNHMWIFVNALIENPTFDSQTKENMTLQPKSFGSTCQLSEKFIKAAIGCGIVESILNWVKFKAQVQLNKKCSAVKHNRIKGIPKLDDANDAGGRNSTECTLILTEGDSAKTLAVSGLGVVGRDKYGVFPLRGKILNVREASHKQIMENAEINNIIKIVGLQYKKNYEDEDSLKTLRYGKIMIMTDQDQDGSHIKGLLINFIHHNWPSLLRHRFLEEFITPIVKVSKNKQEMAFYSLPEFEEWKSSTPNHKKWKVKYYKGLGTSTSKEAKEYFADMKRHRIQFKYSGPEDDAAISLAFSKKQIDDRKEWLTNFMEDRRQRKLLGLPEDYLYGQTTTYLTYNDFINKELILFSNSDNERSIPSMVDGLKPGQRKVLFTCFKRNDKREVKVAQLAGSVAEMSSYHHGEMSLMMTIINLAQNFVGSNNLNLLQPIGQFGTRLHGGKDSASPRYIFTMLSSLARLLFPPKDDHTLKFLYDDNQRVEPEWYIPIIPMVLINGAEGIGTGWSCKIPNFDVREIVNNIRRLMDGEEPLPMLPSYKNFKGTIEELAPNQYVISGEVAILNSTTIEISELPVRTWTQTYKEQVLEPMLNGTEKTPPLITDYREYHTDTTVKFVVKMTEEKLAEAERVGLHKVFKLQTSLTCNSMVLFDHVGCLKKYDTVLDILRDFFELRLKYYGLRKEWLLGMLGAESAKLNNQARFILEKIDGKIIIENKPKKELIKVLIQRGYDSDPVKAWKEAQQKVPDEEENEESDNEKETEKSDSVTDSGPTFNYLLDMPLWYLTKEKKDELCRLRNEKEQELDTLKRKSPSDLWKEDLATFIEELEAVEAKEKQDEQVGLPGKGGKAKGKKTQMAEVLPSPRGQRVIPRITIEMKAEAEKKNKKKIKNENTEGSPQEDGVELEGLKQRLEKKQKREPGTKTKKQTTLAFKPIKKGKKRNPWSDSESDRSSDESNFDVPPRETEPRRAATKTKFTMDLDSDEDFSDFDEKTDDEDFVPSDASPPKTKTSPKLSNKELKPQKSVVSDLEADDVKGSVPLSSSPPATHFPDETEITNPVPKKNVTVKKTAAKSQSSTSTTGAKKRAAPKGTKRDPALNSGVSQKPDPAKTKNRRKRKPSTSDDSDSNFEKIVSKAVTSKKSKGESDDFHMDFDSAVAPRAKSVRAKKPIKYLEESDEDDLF
Method for physchem: as §3

Take `O=C(O)c1cn(C2CC2)c2cc(N3CCNCC3)c(F)cc2c1=O` [CIP, ciprofloxacin, reference compound]: the “CIP (S/R)” value with P. aeruginosa [1] is “S”; with A. baumannii [2], “S”; in the data set on P. aeruginosa [4] (PA1000), “R”; in the data set on P. aeruginosa [4] (PA1586) it was “R”; with E. coli, “S”; with A. baumannii [5] (A. baumannii KB304) it was “R”. Further, the “CIP (S/R)” value in the data set on A. baumannii [5] (A. baumannii KB349) is reported as “R”. Moreover, the MIC in [3] (ATCC29213, high-level CIP-resistant strains, second step, S84L mutation in GyrA) is 16 to 64 µg/mL (≈ 48.3 to 193 µM); in data set [3] (ATCC29213, low-level CIP-resistant strains, first step, WT gyrA, mutation in ParC (for example E84K or S80F)) it was 4 to 8 µg/mL (≈ 12.1 to 24.1 µM); in the data set with E. faecalis (setting [9]), 2 µg/mL (≈ 6.04 µM); in the data set on E. faecalis (setting [10]), 0.5 to 2 µg/mL (≈ 1.51 to 6.04 µM). Further, the “CIP (S/I/R)” value was “S (sensitive (S) if it had an MIC ≤ 4 µg mL-1)” with E. faecalis (strain ATCC 19433); “S (sensitive (S) if it had an MIC ≤ 4 µg mL-1)” with E. faecalis (strain ATCC 29212); “R (resistant (R) with a MIC ≥ 16 µg mL-1)” in the data set on E. faecalis (strain C21667); “R (resistant (R) with a MIC ≥ 16 µg mL-1)” in the data set with E. faecalis (strain C28535); “R (resistant (R) with a MIC ≥ 16 µg mL-1)” in the data set with E. faecalis (strain S206); “R (resistant (R) with a MIC ≥ 16 µg mL-1)” with E. faecalis (strain S234). The “CIP (S/I/R)” value in the data set on E. faecium (strain C21190), with E. faecium (strain C27282), with E. faecium (strain C27569), with E. faecium (strain D1), in the data set with E. faecium (strain S34) and in the data set with E. faecium (strain S51) was “R (resistant (R) with a MIC ≥ 16 µg mL-1)” each time. Moreover, the “CIP (S/I/R)” value with E. faecium (strain S122), with E. faecium (strain S226), in the data set with E. faecium (strain S235), in the data set with E. faecium (strain S344), with E. faecium (strain S557) and with E. faecium (strain SL152) was “R (resistant (R) with a MIC ≥ 16 µg mL-1)” each time. The “CIP (S/I/R)” value in the data set with E. faecium (strain U63), in the data set with E. faecium (strain U275), in the data set with E. faecium (strain U464), with E. faecium (strain U503) and in the data set with E. faecium (strain U563) was “R (resistant (R) with a MIC ≥ 16 µg mL-1)” each time. Moreover, the “CIP MIC” value was 24 µg/mL with A. baumannii [5] (A. baumannii KB304) and more than 32 µg/mL in the data set with A. baumannii [5] (A. baumannii KB349).

As a reminder, the solubility is how much of the substance goes into solution per volume. Low readings indicate a poorly soluble substance, high ones a readily soluble substance. In the case of `CCCn1c(=O)cc(C)c2cc3c(C)cc(=O)n4c3c(c21)OC4` [DNM-8], the MIC was more than 32 µg/mL against P. aeruginosa [1] (PA1586 (CIP resistant clinical isolate)); more than 32 µg/mL in the data set with P. aeruginosa [1] (Pseudomonas aeruginosa, P. aeruginosa PAO1, read-out: MIC); more than 32 µg/mL with P. aeruginosa [1] (Pseudomonas aeruginosa, read-out: MIC); 1 µg/mL (≈ 3.22 µM) against Ent. Spp.; more than 32 µg/mL in the data set on A. baumannii [2]; more than 32 µg/mL with A. baumannii [2] (ATCC19606, A. baumannii ATCC 19606, read-out: MIC). Also, the MIC with MRSA clinical isolates (strain SAU.1118) stood at 8 µg/mL (≈ 25.8 µM); with MRSA clinical isolates (strain SAU.2996), 2 µg/mL (≈ 6.44 µM); in the data set with MRSA clinical isolates (strain SAU.3017) it was 4 µg/mL (≈ 12.9 µM); in the data set on MRSA clinical isolates (strain SAU.3021), 0.125 µg/mL (≈ 0.403 µM); in the data set on MRSA clinical isolates (strain SAU.3025) it was 0.125 µg/mL (≈ 0.403 µM); in the data set with MRSA clinical isolates (strain SAU.3026) it was 0.25 µg/mL (≈ 0.806 µM). Also, the MIC in the data set on MRSA clinical isolates (strain SAU.42) is 8 µg/mL (≈ 25.8 µM); in the data set with MRSA clinical isolates (strain SAU.447) it was 1 µg/mL (≈ 3.22 µM); in the data set with MRSA clinical isolates (strain SAU.555), 0.5 µg/mL (≈ 1.61 µM); in the data set with MRSA clinical isolates (strain SAU.669) it was 0.125 µg/mL (≈ 0.403 µM); in data set [6], 16 µg/mL (≈ 51.6 µM); against E. coli (Escherichia coli, ATCC25922, E. coli ATCC 25922, gyrA none, parC none) it was more than 32 µg/mL. The MIC was found to be 16 µg/mL (≈ 51.6 µM) in the data set with E. faecalis (setting [9]); 8 µg/mL (≈ 25.8 µM) in the data set with E. faecalis (setting [10]); 1 µg/mL (≈ 3.22 µM) in the data set on E. faecalis (C21667, gyrA Ser83Ile, parC Ser80Ile); 1 µg/mL (≈ 3.22 µM) with E. faecalis (C28535, gyrA Ser83Ile, parC Ser80Ile); 4 µg/mL (≈ 12.9 µM) in the data set with E. faecalis (S206, gyrA Ser83 Arg, parC Ser80Ile); 0.5 µg/mL (≈ 1.61 µM) against E. faecalis (S234, gyrA Ser83Ile, parC Ser80Ile Glu84Asp). The MIC turned out to be 8 µg/mL (≈ 25.8 µM) in the data set on E. faecium (C21190, gyrA Ser83 Arg, parC Ser80Ile); 8 µg/mL (≈ 25.8 µM) against E. faecium (C27282, gyrA Ser83 Arg, parC Ser80Arg); 1 µg/mL (≈ 3.22 µM) in the data set on E. faecium (C27569, gyrA Ser83Ile, parC Ser80Ile); 0.5 µg/mL (≈ 1.61 µM) against E. faecium (D1, gyrA Ser83Ile, parC Ser80Ile); 2 µg/mL (≈ 6.44 µM) against E. faecium (S34, gyrA Ser83Ile, parC Ser80 Arg); 1 µg/mL (≈ 3.22 µM) in the data set on E. faecium (S51, gyrA Ser83Ile, parC Ser80Ile). In addition, the MIC in the data set with E. faecium (S122, gyrA Ser83Ile, parC Ser80Ile) came to 1 µg/mL (≈ 3.22 µM); with E. faecium (S226, gyrA Ser83Ile, parC Ser80Ile), 1 µg/mL (≈ 3.22 µM); with E. faecium (S235, gyrA Ser83Ile, parC Ser80Ile), 1 µg/mL (≈ 3.22 µM); in the data set with E. faecium (S344, gyrA Ser83Ile, parC Ser80Ile) it was 1 µg/mL (≈ 3.22 µM); against E. faecium (S557, gyrA Ser83Ile, parC Ser80Ile), 0.5 µg/mL (≈ 1.61 µM); in the data set on E. faecium (SL152, gyrA Ser83Ile, parC Ser80Ile), 1 µg/mL (≈ 3.22 µM). Besides, the MIC in the data set on E. faecium (U63, gyrA Ser83 Arg, parC Ser80Ile) amounted to 4 µg/mL (≈ 12.9 µM); in the data set with E. faecium (U275, gyrA Ser83Cys Glu87Gly, parC Ser80Ile), 4 µg/mL (≈ 12.9 µM); in the data set with E. faecium (U464, gyrA Ser83 Arg, parC Ser80Ile), 2 µg/mL (≈ 6.44 µM); in the data set with E. faecium (U503, gyrA Ser83 Arg, parC Ser80Ile) it was 4 µg/mL (≈ 12.9 µM); in the data set on E. faecium (U563, gyrA Ser83 Arg, parC Ser80Ile), 4 µg/mL (≈ 12.9 µM). The “Sensitivity of VRE clinical isolates” value with VRE clinical isolates is listed as “sensitive”. In the data set with MRSA clinical isolates (panel of MRSA clinical isolates (n=21)), the “Sensitivity of MRSA clinical isolates” value is recorded as “sensitive”. Also, the “MIC against S. aureus 29213” value in [6] was 16 µg/mL (≈ 51.6 µM). Moreover, the solubility at 1 h in “physchem” amounted to 68 ± 9 µM (≈ 21.1 µg/mL). Also, in data set [7], the “MIC against S. aureus NRS3” value is 0.12 µg/mL (≈ 0.387 µM).

As to `CCCc1cc(=O)n(C)c2c3c4c(cc12)c(CCC)cc(=O)n4CO3` [compound 14], in data set [6], the “MIC against S. aureus 29213” value was more than 32 µg/mL and the MIC was more than 32 µg/mL. Moreover, in [7], the “MIC against S. aureus NRS3” value was 32 µg/mL (≈ 94.6 µM). In data set [8], this compound gave a solubility at 1 h of less than 1 µM.

Consider `COc1cccc2c1C(=O)c1c(O)c3c(c(O)c1C2=O)C[C@@](O)(C(=O)CO)C[C@@H]3O[C@H]1C[C@H](N)[C@H](O)[C@H](C)O1` [doxorubicin, reference compound], for which the “concentration inhibiting human topoisomerase II” value at human topoisomerase II stood at 3 µM.
